Measured values taken from US10953237B2, “Methods of providing skin care using phototherapy” (InDerm, priority 2015, dated 2021).

System: human epidermal keratinocytes
Assay: Wound repair (scratch wound closure) in keratinocyte culture
Format: cell-based
Description: The cells were cultured in a 24-well box (20 to 30 000 cells per well). At confluence, a “wound” was made at the center of the well using an “Essen Woundmaker” (Essen Bioscience, Ann Arbor, USA). After rinsing the wells with PBS to remove detached cells, the optional test agent was applied and illumination was started.
Cell migration was followed by two types of instrumentation, (i) videomicroscopy or (ii) Incucyte (Essen Bioscience): whereby a photo from the culture well is recorded every 30 minutes or every hour over a period of 48 hours.
Healing of wounds was studied by dynamic microscopy using a Nikon Eclipse Ti microscope allowing the taking of pictures at intervals of 30 minutes for 24 hours on primary cultures of human fibroblasts and keratinocytes. In this way, it was possible to assess the level of healing.
Incucyte is a device for visualizing and quantifying cell migration in a CO2 incubator at 37° C. The device is used with the Essen Woundmaker. The equipment was calibrated to produce wounds in cell cultures with high reproducibility. The device featured integrated processing software acquisition and image analysis allowing for quantification of the migration rate of cells.
The setup of this experiment was as described in the Materials and Methods Section herein above. […]

`CCCCCCCCCCCCCCCC(=O)O[C@@H]1C[C@@H](C(=O)O)N(C(=O)CCCCCCCCCCCCCCC)C1` [DPHP, Dipalmitoylhydroxyproline] was tested, and the “effect on skin wound repair” value (DPHP serum in combination with 3-LED lighting, keratinocytes (FIG. 4)) was “positive effect” and the “time to 45% wound closure” value (serum (0.175 wt. % DPHP) added at 0.05 wt % of medium, with 3 LEDs 520, 660, 780 nm for 15 seconds, instead of 10 hrs) was 6 h.
